Here are results for 74 compounds from patent US20120010177A1, “MicroRNA Modulators and Method for Identifying And Using The Same” (The Wistar Institute / North Carolina State University, priority 2008, published 2012).

The subject of one assay is miR-21. The experiment in a line: High throughput primary miR-21 FLuc reporter assay (concentration-response). The class given is cell-based, human. The note with it: HeLa Luc-miR-21 reporter, 48-hour incubation; read-out: AC50. Here is the method: Primary miR-21 Assay. The primary miR-21 FLuc reporter assay is carried out with HeLa cells expressing the Luc-miR-21 reporter using a 48-hour incubation time. Active compounds that increase the luciferase response are identified based upon inhibition of miR-21.
SAR. The concentration-response data for the entire high throughput screen is plotted and modeled by a four parameter logistic fit and SAR analysis is performed according to conventional approaches (Iglese, et al. (2006) Proc. Natl. Acad. Sci. USA […]:11473-8). In brief, Class 1.1 and 1.2 are full curves containing upper and lower asymptotes with efficacy ≧80% and <80%, respectively. Class 2.1 and 2.2 are incomplete curves having only one asymptote with efficacy ≧80% and <80%, respectively. Class 3 curves show activity at only the highest concentration or are poorly fit. […] For SAR analysis, compounds associated with Class 1 and 2.1 curves are clustered using LEADSCOPE® fingerprints. […] Compounds sharing a common scaffold form a series. Candidate series and singletons are chosen for follow up studies. For each lead or series, an appropriate library design method (e.g., point substitution library or matrix library) is selected. Typically, precursors are synthesized and a library of 15-25 compounds is produced for analysis in the above-described assays.
A general note: A reporter such as luciferase makes a cellular process visible.
In the case of `Cc1ccc(C)c(-n2nnc(-c3nc(-c4ccc(Cl)cc4)no3)c2N)c1` [Compound 55], the AC50 (in general, the concentration giving half of the maximal activity seen) amounted to 1.85 µM.

Staying with this assay, now noted: Homo sapiens, HeLa, 48 h, HeLa Luc-miR-21 reporter, 48-hour incubation; read-out: AC50.
In the case of `COc1ccc(OCC(=O)Nc2cc(-c3nc4ccccc4s3)ccc2C)cc1` [Compound 184], the AC50 came to 4.65 µM. The same measure, in the same setting: the value for `COc1ccccc1NC(=O)CSc1nnc(-c2ccccn2)o1` [Compound 153] was 14.7 µM; that for `CC(C)C(=O)Nc1nc2c(s1)CC(C(C)(C)C)CC2` (stereo not shown) [Compound 94] was 2.07 µM; that for `Cc1cccc(NC(=O)C2Cc3ccccc3O/C2=N/O)c1` (stereo not shown) [Compound 114] was 10.4 µM.

For the compound `CCC(=O)Oc1ccc(NC(=O)CSCc2ccccc2)cc1` [Compound 146], the AC50 was 11.7 µM. Consider `CCn1nnc2cc(C(=O)Nc3ccc(OC)cc3)ccc21` [Compound 93], for which the half-maximal activity concentration (AC50) is 11.7 µM.

As for `Nc1c(-c2nc(-c3cccs3)no2)nnn1-c1cccc(Cl)c1` [Compound 25], the AC50 was 4.14 µM. Same read-out and setting: the value for `CCc1cccc(-n2nnc(-c3nc(-c4cccs4)no3)c2N)c1` [Compound 19] was 1.65 µM; that for `O=C(N/N=C/c1cccc([N+](=O)[O-])c1)c1nc(O)c2ccccc2n1` [Compound 220] was 11.7 µM. Consider `Nc1ccccc1C(=O)N/N=C1\CCC\C1=C(\O)C(F)(F)F` [Compound 198], for which the half-maximal activity concentration (AC50) was determined as 5.21 µM. Regarding `Cc1ccccc1Nc1nc(N)nc(CN(C)c2ccccc2)n1` [Compound 71], the half-maximal activity concentration (AC50) was determined as 18.5 µM. Still for that read-out and setting: in the case of `Cc1ccc(Nc2c(-c3ccc(C)o3)nc3cnccn23)cc1` [Compound 244] it was 16.5 µM; in that of `O=C(CSc1ccccc1)NCCc1ccccc1` [Compound 152], 14.7 µM; in that of `COc1ccc(CNc2nc(-c3ccco3)nn2C(=O)CC(C)C)cc1` [Compound 32], 5.85 µM. As to `COc1ccc(C(=O)Nc2nnc(C(C)C)s2)cc1OC` [Compound 92], the AC50 came out at 7.36 µM. Same read-out and setting: the value for `Cc1ccc(-c2nc3ncccn3c2Nc2ccc3c(c2)OCCO3)o1` [Compound 242] was 16.5 µM; that for `COc1ccc(Nc2nc(N)nc(CSc3nccc(C)n3)n2)cc1` [Compound 66] was 16.5 µM; that for `COc1ccc(NC(=O)c2sc3nc[nH]c(=O)c3c2C)cc1Cl` [Compound 103] was 16.5 µM. Same read-out and setting: in the case of `CCc1ccc2oc(C(=O)Nc3nonc3CC)c(C)c2c1` [Compound 72] it was 2.93 µM; in that of `CCCCC12CN3CCN(CC(C3)/C1=N/NC(=O)c1ccccc1N)C2` [Compound 214], 9.27 µM.

On to `C=CCNC(=S)NNC(=O)COc1ccc2cc(Br)ccc2c1` [Compound 181], for which the half-maximal activity concentration (AC50) worked out at 7.36 µM. Still for that read-out and setting: the value for `C/C(=N\NC(=O)c1ccncc1)c1ccc(NC(=O)c2ccc(Cl)cc2)cc1` [Compound 185] was 1.47 µM; that for `O=c1ccc2ccc(OCc3nnc(-c4ccccc4Br)o3)cc2o1` [Compound 28] was 11.7 µM. For `CCC(=O)Nc1ccc(NC(=O)C23CC4CC(CC(C4)C2)C3)cn1` [Compound 98], the concentration at half-maximal activity (AC50) is 16.5 µM. Turning to `COC(=O)/C(=C/c1cccc([N+](=O)[O-])c1)NC(=O)c1ccc(OC)cc1` [Compound 119], the AC50 was determined as 10.4 µM. Same read-out and setting: in the case of `COc1ccc(NC(=O)c2ncn(-c3ccccc3)n2)cc1Cl` [Compound 101] it was 9.27 µM; in that of `Cc1cc(Cl)c2oc(C(=O)N[C@H]3CC[C@H](O)CC3)c(C)c2c1` [Compound 80], 16.5 µM.

Take `Cc1cc(C)c2c(N)c(C(=O)Nc3ccccc3F)sc2n1` [Compound 81]: the AC50 turned out to be 1.47 µM. On the same count and under the same terms, the value for `CCN(CC)C(=O)CS/C(=N/C#N)Nc1ccccc1F` [Compound 155] was 14.7 µM; that for `O=C(CSc1nnc(-c2ccc(Cl)cc2)o1)Nc1ccc(F)cc1` [Compound 122] was 1.04 µM; that for `Cc1cc(C)n2nc(SCCOc3ccccc3)nc2n1` [Compound 45] was 7.36 µM. As to `C/C(CC(=O)NC(C)(C)C)=N\NC(=O)c1ccco1` [Compound 205], the AC50 was found to be 6.56 µM. Still for that read-out and setting: the value for `Cc1ccc(CNc2nc3nc(C)c(Cl)c(C)n3n2)cc1` [Compound 30] was 1.31 µM; that for `CCc1nonc1NC(=O)c1oc2ccccc2c1C` [Compound 79] was 14.7 µM.

In the case of `C/C(=N\NC(=O)c1nn(C)cc1Br)c1ccc(NC(=O)c2ccncc2)cc1` [Compound 234], the concentration at half-maximal activity (AC50) stood at 18.5 µM. Same read-out and setting: in the case of `Cc1ccc(N/C(S)=N/NC(=O)c2nn(C)c(C)c2Cl)cc1` [Compound 203] it was 5.85 µM. As to `O=C(COc1ccccc1[N+](=O)[O-])N/N=C/c1ccc(O)cc1` [Compound 172], the AC50 came to 11.7 µM.

For the compound `O=C(Nc1ccc2nn(-c3ccccc3)nc2c1)c1ccc(-c2cccc(Cl)c2)o1` [Compound 109], the AC50 came to 18.5 µM. In the case of `O=C(c1ccc([N+](=O)[O-])cc1)n1nc(-c2ccccc2)nc1NCc1ccccc1` [Compound 34], the half-maximal activity concentration (AC50) came to 8.26 µM. Same read-out and setting: in the case of `Cc1ccc(-c2csc(NC(=O)CSc3nc4ccccc4o3)n2)cc1` [Compound 147] it was 11.7 µM; in that of `COc1ccc(NC(=O)C/C(C)=N/NC(=O)c2cccs2)c([N+](=O)[O-])c1` [Compound 190], 1.85 µM; in that of `C/C(=N\NC(=O)c1ccco1)c1ccc(NC(=O)C(F)(F)F)cc1` [Compound 229], 16.5 µM. On the same count and under the same terms, in the case of `COc1ccc(CNc2nc(-c3ccccc3)nn2C(=O)c2ccc([N+](=O)[O-])cc2)cc1` [Compound 38] it was 14.7 µM; in that of `CC(C)c1nnc(NC(=O)COc2ccccc2[N+](=O)[O-])s1` [Compound 179], 9.27 µM. The same measure, in the same setting: in the case of `C#Cc1cccc(NC(=O)CSc2nnc(-c3ccc(C(F)(F)F)cn3)o2)c1` [Compound 130] it was 4.14 µM; in that of `CCCCCCC1/C(=N\NC(=O)c2ccccc2)CCC1C(=O)OC` (stereo not shown) [Compound 230], 16.5 µM; in that of `O=C(CSc1nnc(-c2cccnc2)o1)Nc1cccc(Cl)c1` [Compound 149], 13.1 µM. As for `Nc1nc(Nc2ccccc2)nc(C(F)(F)F)n1` [Compound 67], the AC50 was found to be 16.5 µM. On the same count and under the same terms, in the case of `CC(=O)N1N=C(c2ccc(C)cc2)OC1c1cccnc1` (stereo not shown) [Compound 228] it was 16.5 µM; in that of `COc1cccc(NC(=O)Cn2nnc(-c3nc(-c4ccccc4)no3)c2N)c1` [Compound 24], 10.4 µM.

Still in this assay, the particulars now being: Homo sapiens, Table 12 singletons; read-out: AC50.
For the compound `CC1Oc2ccccc2N(CC(=O)NCc2cccs2)C1=O` (stereo not shown) [Compound 334], the AC50 turned out to be 18.5 µM.

Consider `Oc1csc(Cc2nc(-c3ccccc3F)cs2)n1` [Compound 276], for which the half-maximal activity concentration (AC50) was determined as 6.56 µM.

Regarding `COc1ccc(-c2csc(NC(=O)COC(=O)c3ccc(Br)o3)n2)cc1` [Compound 259], the AC50 is 2.93 µM. `COCCC/N=C(\S)N/N=C/c1ccc(N(C)C)cc1Cl` [Compound 270]: the AC50 stood at 5.85 µM. Take `CSc1ccc(-c2cccc([N+](=O)[O-])c2)nn1` [Compound 277]: the AC50 was 6.56 µM. Same read-out and setting: in the case of `O=c1c(=Nc2ccccc2O)c(=O)c2ccccc12` [Compound 294] it was 13.1 µM.

Turning to `Cn1nc(NC(=O)C(F)(F)F)c2ncc(-c3ccc(Cl)cc3)nc21` [Compound 283], the half-maximal activity concentration (AC50) stood at 9.27 µM. Take `CC(=O)N1N=C(c2ccc(C)cc2)OC1c1cccnc1` (stereo not shown) [Compound 322]: the AC50 stood at 16.5 µM. Same read-out and setting: the value for `COC(=O)c1ccc(Cn2nnc3sc4c(c3c2=O)CCCC4)cc1` [Compound 273] was 6.56 µM. Same read-out and setting: the value for `CC(C)(C)NS(=O)(=O)c1cccc(S(=O)(=O)c2cccc(S(=O)(=O)NC(C)(C)C)c2)c1` [Compound 253] was 1.65 µM; that for `O=S(=O)(c1cccc2nsnc12)N1CCc2ccccc21` [Compound 269] was 4.65 µM. As for `c1csc(-c2nn3c(C4COc5ccccc5O4)nnc3s2)c1` (stereo not shown) [Compound 314], the AC50 worked out at 16.5 µM. On the same count and under the same terms, in the case of `CN1CCN(/N=C/c2nc(-c3ccc(Cl)cc3)n3ccccc23)CC1` [Compound 325] it was 16.5 µM. Still for that read-out and setting: in the case of `CCOC(=O)N1CCN(C(=O)CSCc2ccccc2Cl)CC1` [Compound 329] it was 16.5 µM; in that of `CCC(C)NC(=O)CCCn1c(=O)c2cccn2c2ccccc21` (stereo not shown) [Compound 251], 0.93 µM. The same measure, in the same setting: the value for `CC(=O)O[C@H]1C[C@@]2(C)[C@@H](C[C@@H](O)[C@H]3[C@@]4(C)CC[C@@H](O)[C@@H](C)C4CC[C@@]32C)/C1=C(\CCC=C(C)C)C(=O)O` (stereo partly shown) [Compound 312] was 14.7 µM.

`Cn1c(=O)[nH]c2cc(-c3noc(-c4ccc(F)cc4)n3)ccc21` [Compound 252]: the AC50 turned out to be 1.31 µM. Same read-out and setting: the value for `CC(=O)N(C)c1ccc(N/C(S)=N/c2cccc3ccccc23)cc1` [Compound 337] was 18.5 µM. Same read-out and setting: the value for `CCOC(=O)Nc1ccc2c(c1)ncn2C1CCCCC1` [Compound 333] was 18.5 µM; that for `CC(C)(C)c1ccc(CN2C(=O)c3ccccc3S2(=O)=O)cc1` [Compound 308] was 14.7 µM. On the same count and under the same terms, in the case of `O=c1n(Cc2ccccc2)nc2n1-c1ccccc1SC2` [Compound 321] it was 16.5 µM. With `Cc1ccc2c(c1)NCC(C(=O)NC1CCC(C)CC1)O2` (stereo not shown) [Compound 305], the AC50 is 14.7 µM.

The assay is the same for the next values; noted with them: Table 12 singletons; concentration-response curve class.
As to `Cc1cccc2c1-c1sc(C(=O)Nc3cccnc3)cc1CO2` [Compound 323, CC1═C/C═C\C2═C\1\C3═C(CO2)\C═C(/S3)C(═O)NC4═C/C═C\N═C\4], the “Curve Class” value is on record as −2.2.

Staying with this assay, now noted: Table 12 singletons; negative values as printed.
With `Cc1cccc2c1-c1sc(C(=O)Nc3cccnc3)cc1CO2` [Compound 323, CC1═C/C═C\C2═C\1\C3═C(CO2)\C═C(/S3)C(═O)NC4═C/C═C\N═C\4], the Efficacy was −70.23.

The assay is the same for the next values; noted with them: Table 12 singletons; read-out: AC50.
`Cc1cccc2c1-c1sc(C(=O)Nc3cccnc3)cc1CO2` [Compound 323, CC1═C/C═C\C2═C\1\C3═C(CO2)\C═C(/S3)C(═O)NC4═C/C═C\N═C\4]: the AC50 is 16.5 µM.
